Measurements: paper PMC11007773 (ACS Omega, 2024)

Molecular target: Human transferrin (Htf) (Homo sapiens, UniProt P02787)
Test: isothermal titration calorimetry
Type: binding

Human transferrin (Htf), sequence (P02787 20-698): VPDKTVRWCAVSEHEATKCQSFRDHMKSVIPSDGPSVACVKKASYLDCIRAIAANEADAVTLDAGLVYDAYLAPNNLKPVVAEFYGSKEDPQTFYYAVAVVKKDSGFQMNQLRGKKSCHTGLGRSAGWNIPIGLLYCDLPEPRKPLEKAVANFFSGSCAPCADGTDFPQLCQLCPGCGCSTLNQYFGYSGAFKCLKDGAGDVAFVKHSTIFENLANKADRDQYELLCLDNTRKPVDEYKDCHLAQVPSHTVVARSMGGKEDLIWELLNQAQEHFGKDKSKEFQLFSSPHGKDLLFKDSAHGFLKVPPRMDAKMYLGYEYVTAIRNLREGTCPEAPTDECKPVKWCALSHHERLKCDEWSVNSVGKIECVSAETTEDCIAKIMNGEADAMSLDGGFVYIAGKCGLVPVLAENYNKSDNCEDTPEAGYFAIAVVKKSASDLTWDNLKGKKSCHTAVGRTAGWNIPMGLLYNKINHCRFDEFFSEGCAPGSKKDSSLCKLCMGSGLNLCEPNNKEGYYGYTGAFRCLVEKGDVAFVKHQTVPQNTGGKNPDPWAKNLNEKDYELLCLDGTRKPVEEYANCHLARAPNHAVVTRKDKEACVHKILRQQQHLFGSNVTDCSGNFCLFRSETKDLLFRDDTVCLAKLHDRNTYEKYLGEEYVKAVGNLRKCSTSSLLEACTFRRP

- Kd: 1.45 µM
SMILES: O=c1oc2c(O)c(O)cc3c(=O)oc4c(O)c(O)cc1c4c23 [Ellagic acid]
